Patent US9274101B2 (BIOLOG, Inc., priority 2001, dated 2016)
Where a SMILES comes first, the peptide text is derived from it.

Key:
E. coli MG1655 = type: cell-based, Escherichia coli
ten strains of E. coli = type: cell-based, Escherichia coli
HepG2 cells = HepG2 cells cultured on CYTODEX 3 microcarriers, energy sources; type: cell-based, human; conditions: Homo sapiens, HepG2, 68 h, read-out: Responses of HepG2 Cells Cultured on Microcarriers After 68 hours in Culture and a 4 hour Color Development Period
Procedure: In this Example, methods for testing adherent cells cultured in suspension, for their ability to use multiple carbon sources are described. HepG2 cells were cultured as described in Example 30.
HepG2 cells were harvested by trypsinization for 3 minutes in 0.25% trypsin-1 mM EDTA and resuspended in an equal volume of culture medium. A viable cell count was obtained by trypan blue exclusion and the appropriate volume of the cell suspension to have 2.7×10^6 cells/0.1 gm CYTODEX 3 (Sigma C3275) microcarrier beads was determined. Microcarrier beads had been previously prepared by 1) rehydration in calcium-magnesium free (CMF) DPBS for 3 hours, 2) autoclaving for 15 minutes, and 3) washing twice in MEM without serum. The cell suspension was added to the beads in a 50 mL tube, and the volume adjusted to 5 mL. Cells were allowed to attach for 1 hour in an atmosphere of 5% CO2, 90-100% humidity, and 37° C., with resuspension every 15 minutes. The microcarriers were transferred to a 100×15 mm Petri dish in a total volume of 20 mL. Cultures were maintained as stationary cultures until used for assay.
The thixotropic suspending agent, methylcellulose (1500 cps, Sigma M0555), was included in the medium to keep the microcarriers suspended so that they could be accurately pipetted. The methylcellulose was prepared by autoclaving in 20 mL tissue culture water for 30 minutes, then mixing by shaking for 1 hour. The initial concentration of methylcellulose was […]. The methylcellulose was then diluted 1:1 in 2× DME with or without glucose, then supplemented with 10% HI FBS; this yields a methylcellulose concentration of 1.36%. Beads were transferred to a 50 mL tube, allowed to settle and resuspended in DPBS. The washed beads were then resuspended in DME with 10% HI FBS and penicillin-streptomycin but without glucose, L-glutamine, sodium pyruvate, or phenol red. An equal volume of 1.36% methylcellulose was added and mixed by pipetting.
For the assay, 70 μL of DME with 10% HI FBS and penicillin-streptomycin but without glucose, L-glutamine, sodium pyruvate, or phenol red were added to each well, followed by 30 μL of the appropriate dilution of each test energy source. Stocks of 133 mM of each test chemical were prepared in tissue culture grade water, sterile filtered, and dilutions were prepared in a master plate so that, upon dilution into a regular 96-well MICROPLATE a total well volume of 200 μL, the final concentrations would be 0.033 to 20 mM. Negative control wells received 30 μL of tissue culture grade water. One hundred μL of beads were pipetted into each well. For each plate containing energy sources and cells, a second, control plate containing only energy sources was prepared. Plates were incubated at 5% CO2, 90-100% humidity, and 37° C. for 68 hours prior to addition of the MTS/MPMS colorometric reagent (10 μL/well). The color formed in each well 4-8 hours after addition of the colorimetric reagent, was measured with a plate reader at 490 nm with a reference wavelength of 650 nm. OD values from the control plate were subtracted from the OD values obtained with cells prior to normalizing the data to % negative control (cells without added energy source).

SMILES | suitability as nitrogen source (growth, purple color) (E. coli MG1655) | also measured
CCCCCCC(N)C(=O)O (racemic) [DL-α-amino-caprylic acid] | not suitable | 
CCC(N)C(=O)O (racemic) [DL-α-amino-n-butyric acid] | not suitable | 
CCCC(N)C(=O)O (stereo not drawn) [2-amino-valeric acid] | not suitable | 
C[C@@H](N)c1ccccc1 [(R)-(+)-α-phenylethylamine] | not suitable | 
N[C@H]1C(O)O[C@H](CO)[C@H](O)[C@@H]1O (stereo partly drawn) [D(+)-galactosamine] | weak positive | 
N[C@H]1C(O)O[C@H](CO)[C@@H](O)[C@@H]1O (stereo partly drawn) [D(+)-glucosamine] | positive | 
NC(=O)C[C@@H](N)C(=O)O [D-asparagine] | not suitable | 
N[C@H](CCC(=O)O)C(=O)O [D-glutamic acid] | not suitable | 
NCCCC[C@@H](N)C(=O)O [D-lysine] | not suitable | 
N[C@@H]1C(O)O[C@H](CO)[C@@H](O)[C@@H]1O (stereo partly drawn) [D-mannosamine] | weak positive | 
CC(C)[C@@H](N)C(=O)O [D-valine] | not suitable | 
NC(=O)NCCC[C@H](N)C(=O)O [L-citrulline] | not suitable | 
CC[C@H](C)[C@H](N)C(=O)O [L-isoleucine] | not suitable | 
CC(C)C[C@H](N)C(=O)O [L-leucine] | not suitable | 
NCCCC[C@H](N)C(=O)O [L-lysine] | not suitable | 
N[C@@H](Cc1ccc(O)cc1)C(=O)O [L-tyrosine] | not suitable | 
CC(=O)N[C@H]1C(O)O[C@H](CO)[C@H](O)[C@@H]1O (stereo partly drawn) [N-acetyl-D-galactosamine] | not suitable | 
CC(=O)NCC(=O)O [N-acetyl-glycine] | not suitable | 
OC[C@H]1O[C@@](CO)(O[C@H]2O[C@H](CO)[C@@H](O)[C@H](O)[C@H]2O)[C@@H](O)[C@@H]1O [Sucrose] |  | carbon source utilization (ten strains of E. coli): + and −; carbon source utilization (text) (ten strains of E. coli): three of the four strains were positive; activity at 30 µM (HepG2 cells; Conc. 0.03 mM): 90.2%; activity at 100 µM (HepG2 cells; Conc. 0.10 mM): 109%; activity at 330 µM (HepG2 cells; Conc. 0.33 mM): 98.6%; activity at 1000 µM (HepG2 cells; Conc. 1.00 mM): 95.2%; activity at 3300 µM (HepG2 cells; Conc. 3.3 mM): 94%; activity at 10000 µM (HepG2 cells; Conc. 10 mM): 83.3%; activity at 15000 µM (HepG2 cells; Conc. 15 mM): 66.8%; activity at 20000 µM (HepG2 cells; Conc. 20 mM): 59.5%
CC(N)=O [acetamide] | not suitable | 
Nc1ncnc2nc[nH]c12 [adenine] | not suitable | 
N=C(N)NCCCCN [agmatine] | not suitable | 
C[C@H](N)C(=O)N[C@@H](Cc1cnc[nH]1)C(=O)O [ala-his] (H-Ala-His-OH) | not suitable | 
C[C@H](N)C(=O)N[C@H](C(=O)O)[C@@H](C)O [ala-thr] (H-Ala-Thr-OH) | positive | 
